Assay results reported in patent US9682925B2, “Cyclopropaneamine compound” (TAKEDA PHARMACEUTICAL COMPANY LIMITED, priority 2011, dated 2017).
pIC50: −log10 of the molar value. Counter-ions that a name gives are not always drawn.

Key:
Format in all cases: biochemical
MAO-B = target: T1, MAO-B (Homo sapiens, UniProt P27338); assay: Measurement of MAO-B inhibitory activity (MAO-Glo Assay)
T1 construct: purchased Sigma-Aldrich Co. LLC
T1 sequence (P27338 1-520): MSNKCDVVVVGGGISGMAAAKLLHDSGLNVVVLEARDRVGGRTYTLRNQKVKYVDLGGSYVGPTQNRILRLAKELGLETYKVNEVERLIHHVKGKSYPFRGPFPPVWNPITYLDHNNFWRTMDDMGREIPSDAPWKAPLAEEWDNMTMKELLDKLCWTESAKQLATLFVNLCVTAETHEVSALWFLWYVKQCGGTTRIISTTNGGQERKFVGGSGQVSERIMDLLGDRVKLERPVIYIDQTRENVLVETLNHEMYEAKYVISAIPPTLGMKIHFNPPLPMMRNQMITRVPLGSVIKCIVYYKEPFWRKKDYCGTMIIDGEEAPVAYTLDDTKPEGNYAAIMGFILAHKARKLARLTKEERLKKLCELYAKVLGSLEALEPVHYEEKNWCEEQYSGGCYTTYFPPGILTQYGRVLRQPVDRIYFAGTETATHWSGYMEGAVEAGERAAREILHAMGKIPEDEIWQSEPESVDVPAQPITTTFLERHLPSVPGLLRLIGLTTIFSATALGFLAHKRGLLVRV
Procedure: (2) Measurement of MAO-B Inhibitory Activity
The MAO-B inhibitory activity evaluation described below followed the protocol of MAO-Glo (registered trademark) Assay of Promega KK.
(§1) A test compound dissolved in 4% DMSO was added by 12.5 μL to 25 μL reaction solution (100 mM HEPES (pH 7.5), 5% glycerol, 10% DMSO) containing 400 ng of MAO-B enzyme (Sigma-Aldrich Co. LLC.), and the mixture was reacted at room temperature for 10 min. MAO substrate (Promega KK) (16 μM) was added by 12.5 μL to start the reaction. After reaction at room temperature for 60 min, Luciferine detection reagent (Promega KK) (50 μL) was added to terminate the reaction. After reaction at room temperature for 20 min with stirring, the luminescence was measured by Envision (PerkinElmer). The MAO-B inhibitory rate (%) of the test compound was calculated by the following formula. inhibitory rate (%)=(1−(test compound count−blank)÷(control−blank)×100
The count of the MAO-B enzyme reaction mixture under compound non-addition conditions is indicated as control, and the count under compound non-addition and MAO-B enzyme non-addition conditions is indicated as blank.

MAO-A = target: T2, MAO-A (Homo sapiens, UniProt P21397); assay: Measurement of MAO-A inhibitory activity (MAO-Glo Assay)
T2 construct: purchased Sigma-Aldrich Co. LLC
T2 sequence (P21397 1-527): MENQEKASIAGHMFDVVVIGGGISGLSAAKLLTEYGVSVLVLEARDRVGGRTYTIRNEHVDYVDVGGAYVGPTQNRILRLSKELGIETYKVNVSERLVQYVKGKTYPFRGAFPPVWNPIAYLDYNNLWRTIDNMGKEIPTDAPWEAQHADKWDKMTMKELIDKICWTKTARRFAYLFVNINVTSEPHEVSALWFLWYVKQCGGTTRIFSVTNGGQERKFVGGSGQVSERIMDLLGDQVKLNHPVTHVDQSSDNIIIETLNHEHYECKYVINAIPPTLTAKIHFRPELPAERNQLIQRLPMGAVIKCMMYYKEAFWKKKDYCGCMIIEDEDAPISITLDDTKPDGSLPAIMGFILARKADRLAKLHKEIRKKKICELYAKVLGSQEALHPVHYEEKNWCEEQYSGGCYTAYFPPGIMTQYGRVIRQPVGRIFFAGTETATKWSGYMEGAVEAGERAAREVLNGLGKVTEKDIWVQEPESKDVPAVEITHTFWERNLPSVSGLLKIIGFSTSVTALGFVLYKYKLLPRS
Procedure: (1) Measurement of MAO-A Inhibitory Activity
The MAO-A inhibitory activity evaluation described below followed the protocol of MAO-Glo (registered trademark) Assay of Promega KK.
as §1, with “glycerol)” for “glycerol, 10% DMSO)”, “MAO-A” for “MAO-B”, “(160” for “(16”
The count of the MAO-A enzyme reaction mixture under compound non-addition conditions is indicated as control, and the count under compound non-addition and MAO-A enzyme non-addition conditions is indicated as blank.

human LSD1(171-852) = target: T3, human LSD1(171-852) (Homo sapiens, UniProt O60341); assay: Measurement of LSD1 inhibitory activity (time-resolved fluorescence, biotin-histone H3 mono methylated K4 peptide); conditions: read-out: LSD1 IC50 value
T3 construct: to give hLSD1(171-852) purified product; made in house; host or cells: Escherichia coli C43(DE3) pLysS
Procedure: When the turbidity reached 600 Klett units, the culture temperature was changed to 16° C., IPTG having a final concentration of 0.5 mM was added to induce expression, and the cells were cultured further for 21 hr. The culture medium was centrifuged at 9,000 g for 10 min, and Escherichia coli pellets were recovered.
Escherichia coli pellets in 9 L of the culture medium were suspended in 1340 mL of an extraction buffer (PBS, 5% (V/V) Glycerol), and 6700 units of Benzonase (Merck) were added. Using Branson ultrasonic disintegrator, the suspension was disrupted by ultrasonication for 3 min, and centrifuged at 33,000 g for 20 min, and the supernatant was recovered.
(5) Measurement of LSD1 Inhibitory Activity
After reaction at room temperature for 20 min, 1 mM 2-PCPA solution (5 μL) was added to terminate the reaction. A detection solution (800 mM potassium fluoride, 0.1% BSA) containing europium-labeled antihistone H3 antibody (Wako Pure Chemical Industries, Ltd.) and Streptavidin-XL665 (Cisbio) was further added by 5 μL, and the mixture was left standing for 60 min. A time-resolved fluorescence (excitation 320 nm, emission 615 nm, 665 nm) was measured by Envision (PerkinElmer). The LSD1 inhibitory rate (%) of the test compound was calculated by the following formula. inhibitory rate (%)=(1−(test compound count−blank)÷(control−blank)×100
The count of the LSD1 enzyme reaction mixture under compound non-addition conditions is indicated as control, and the count under compound non-addition and LSD1 enzyme non-addition conditions is indicated as blank.

SMILES | pIC50 (MAO-B) | pIC50 (MAO-A) | pIC50 (human LSD1(171-852))
O=C(Nc1ccc([C@@H]2C[C@H]2N2CCCC2)cc1)c1ccccc1 (relative stereo) [Example 30, N-{4-[trans-2-(pyrrolidin-1-yl)cyclopropyl]phenyl}benzamide hydrochloride] | < 5.00 | 5.77 | 6.24
O=C(Nc1ccc([C@@H]2C[C@H]2NCc2ccccc2)cc1)c1cccc(N2CCCCC2)c1 (relative stereo) [Example 32, N-{4-[trans-2-(benzylamino)cyclopropyl]phenyl}-3-piperidin-1-ylbenzamide] | < 5.00 | < 5.00 | > 7.00
O=C(Nc1ccc([C@@H]2C[C@H]2NCc2ccccc2)cc1)c1cccc(N2CCCCC2=O)c1 (relative stereo) [Example 33, N-{4-[trans-2-(benzylamino)cyclopropyl]phenyl}-3-(2-oxopiperidin-1-yl)benzamide] | < 5.00 | < 5.00 | > 7.00
O=C(Nc1ccc([C@@H]2C[C@H]2NCc2ccccc2)cc1)c1ccc(-c2ccccc2)cc1 (relative stereo) [Example 35, N-{4-[trans-2-(benzylamino)cyclopropyl]phenyl}biphenyl-4-carboxamide] | < 5.00 | 5.89 | 6.89
O=C(Nc1ccc([C@@H]2C[C@H]2NCc2cccnc2)cc1)c1ccc(-c2ccccc2)cc1 (relative stereo) [Example 38, N-(4-{trans-2-[(pyridin-3-ylmethyl)amino]-cyclopropyl}-phenyl)biphenyl-4-carboxamide] | < 5.00 | 5.04 | > 7.00
O=C(Nc1ccc([C@@H]2C[C@H]2NCc2ccncc2)cc1)c1ccc(-c2ccccc2)cc1 (relative stereo) [Example 39, N-(4-{trans-2-[(pyridin-4-ylmethyl)amino]-cyclopropyl}-phenyl)biphenyl-4-carboxamide] | < 5.00 | < 5.00 | > 7.00
COc1cccc(CN[C@@H]2C[C@H]2c2ccc(NC(=O)c3ccc(-c4ccccc4)cc3)cc2)c1 (relative stereo) [Example 41, N-(4-{trans-2-[(3-methoxybenzyl)-amino]cyclo-propyl}phenyl)-biphenyl-4-carboxamide] | 5.29 | 5.24 | 6.96
O=C(Nc1ccc([C@@H]2C[C@H]2NCc2ccc3c(c2)OCO3)cc1)c1ccc(-c2ccccc2)cc1 (relative stereo) [Example 42, N-(4-{trans-2-[(1,3-benzodioxol-5-ylmethyl)amino]-cyclopropyl}-phenyl)biphenyl-4-carboxamide] | < 5.00 | < 5.00 | > 7.00

Second part, the compound after the results:

pIC50 (MAO-B) | pIC50 (MAO-A) | pIC50 (human LSD1(171-852)) | SMILES
< 5.00 | 5.28 | 6.96 | O=C(Nc1ccc([C@@H]2C[C@H]2NCc2ccccc2)cc1)c1cccc(NCc2ccccc2)c1 (relative stereo) [Example 29, 3-(benzylamino)-N-{4-[trans-2-(benzylamino)cyclopropyl]phenyl}benzamide]
< 5.00 | < 5.00 | > 7.00 | O=C(Nc1cccc(C(=O)Nc2ccc([C@@H]3C[C@H]3NCc3ccccc3)cc2)c1)c1ccccc1 (relative stereo) [Example 31, N-{4-[trans-2-(benzylamino)cyclopropyl]phenyl}-3-[(phenylcarbonyl)amino]benzamide]
< 5.00 | < 5.00 | 6.72 | O=C(Nc1ccc([C@@H]2C[C@H]2NCc2ccccc2)cc1)c1cccc(CCc2ccccc2)c1 (relative stereo) [Example 34, N-{4-[trans-2-(benzylamino)cyclopropyl]phenyl}-3-(2-phenylethyl)benzamide]
< 5.00 | 5.34 | > 7.00 | O=C(Nc1ccc([C@@H]2C[C@H]2NCc2ccccc2)cc1)c1cccc(-c2ccccc2)c1 (relative stereo) [Example 36, N-{4-[trans-2-(benzylamino)cyclopropyl]phenyl}biphenyl-3-carboxamide]
